{
  "source": "patent US10604554B2",
  "about": "“Double-acylated GLP-1 derivatives” (Novo Nordisk A/S, priority 2012, dated 2020)",
  "key": {"human GLP-1 receptor [1]": {"target": "T1, human GLP-1 receptor (Homo sapiens, UniProt P43220)", "T1 construct": "expressed in transfected cells; host or cells: BHK cells, clone FCW467-12A/KZ10-1 (parent line BHKTS13), further transfected with CRE luciferase", "T1 sequence (P43220 24-463)": "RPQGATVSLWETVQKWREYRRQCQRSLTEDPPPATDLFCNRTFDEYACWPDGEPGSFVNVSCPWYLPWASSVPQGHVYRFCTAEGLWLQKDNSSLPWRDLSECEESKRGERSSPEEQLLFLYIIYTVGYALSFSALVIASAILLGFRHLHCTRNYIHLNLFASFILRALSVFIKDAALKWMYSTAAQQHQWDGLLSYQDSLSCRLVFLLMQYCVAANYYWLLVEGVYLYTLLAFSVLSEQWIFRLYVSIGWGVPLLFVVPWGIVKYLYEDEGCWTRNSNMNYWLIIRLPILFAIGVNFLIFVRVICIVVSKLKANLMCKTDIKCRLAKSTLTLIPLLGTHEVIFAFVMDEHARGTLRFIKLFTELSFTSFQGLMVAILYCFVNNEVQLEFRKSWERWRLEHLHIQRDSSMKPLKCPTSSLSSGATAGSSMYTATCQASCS", "assay": "In vitro potency (CRE luciferase; whole cells)", "assay_type": "cell-based", "set-up": "EC50/pM (ratio 1% HSA/0% HSA): unit not given here", "conditions": "for EC50: BHK cells; for EC50/pM (ratio 1% HSA/0% HSA): ratio of EC50 at 1% HSA to EC50 at 0% HSA", "experimental": "The purpose of this example is to test the activity, or potency, of the GLP-1 derivatives in vitro. The in vitro potency is the measure of human GLP-1 receptor activation in a whole cell assay.\nIn vitro potency was determined by measuring the response of human GLP-1 receptor in a reporter gene assay. The assay was performed in a stably transfected BHK cell line that expresses the human GLP-1 receptor and contains the DNA for the cAMP response element (CRE) coupled to a promoter and the gene for firefly luciferase (CRE luciferase). When the human GLP-1 receptor was activated it results in the production of cAMP, which in turn results in the luciferase protein being expressed. When assay incubation was completed the luciferase substrate (luciferin) was added and the enzyme converts luciferin to oxyluciferin and produces bioluminescence. The luminescence was measured and was the readout for the assay.\nAn increase of the in vitro potency, EC50 value, in the presence of serum albumin indicates an affinity to serum albumin and represents a method to predict a protracted pharmacokinetic profile of the test substance in animal models.\nThe cells were cultured at 5% CO2 in cell culture medium. They were aliquoted and stored in liquid nitrogen. Before each assay an aliquot was taken up and washed twice in PBS before being suspended at the desired concentration in the assay specific buffer.\nThe following chemicals were used in the assay: Pluronic F-68 (10%) (Gibco 2404), human serum albumin (HSA) (Sigma A9511), ovalbumin (Sigma A5503), DMEM w/o phenol red (Gibco 11880-028), 1 M Hepes (Gibco 15630), Glutamax 100× (Gibco 35050) and steadylite plus (PerkinElmer 6016757).\n1) Cell stocks were thawed in a 37° C. water bath.\n2) Cells were washed three times in PBS.\n3) The cells were counted and adjusted to 5×10^3 cells/50 μl (1×10^5 cells/ml) in assay medium. A 50 μl aliquot of cells was transferred to each well in the assay plate.\n4) Stocks of the test compounds and reference compounds were diluted to a concentration of 0.2 μM in 0% assay buffer for the 0% HSA CRE luciferase assay and 1% assay buffer for the HSA CRE luciferase assay. […] 5) A 50 μl aliquot of compound or blank was transferred in triplicate from the dilution plate to the assay plate. […] 7) The assay plate was removed from the incubator and allowed to stand at room temperature for 15 min. 8) A 100 μl aliquot of steadylite plus reagent was added to each well of the assay plate (reagent was light sensitive). 9) Each assay plate was covered with aluminum foil to protect it from light and shaken for 30 min at room temperature. 10) Each assay plate was read in a Packard TopCount NXT instrument. Calculations and Results\nThe data from the TopCount instrument were transferred to GraphPad Prism software. The software averages the values for each replicate and performs a non-linear regression."}, "human GLP-1 receptor [2]": {"target": "T1, human GLP-1 receptor", "assay": "GLP-1 receptor binding (SPA, displacement of 125I-GLP-1)", "experimental": "The purpose of this experiment is to investigate the binding to the GLP-1 receptor of the GLP-1 derivatives, and how the binding is potentially influenced by the presence of albumin. This is done in an in vitro experiment as described below.\nIn order to test the binding of the derivatives to albumin, the assay was performed with a low concentration of albumin (0.001%—corresponding to the residual amount thereof in the tracer), as well as with a high concentration of albumin (2.0% added). A shift in the binding affinity, IC50, is an indication that the peptide in question binds to albumin, and thereby a prediction of a potential protracted pharmacokinetic profile of the peptide in question in animal models.\nSpecies (in vitro): Hamster\nBiological End Point: Receptor Binding\nA stable transfected cell line and a high expressing clone were selected for screening. The cells were grown at 5% CO2 in DMEM, 10% FCS, 1% Pen/Strep (Penicillin/Streptomycin) and 1.0 mg/ml of the selection marker G418.\nThe cells (approx. 80% confluence) were washed twice in PBS and harvested with Versene (aqueous solution of the tetrasodium salt of ethylenediaminetetraacetic acid), following which they were separated by centrifugation at 1000 rpm for 5 min. The cells/cell pellet must be kept on ice to the extent possible in the subsequent steps. The cell pellet was homogenised with Ultrathurrax for 20-30 seconds in a suitable amount of Buffer 1 (depending on the amount of cells, but e.g. 10 ml). The homogenate was centrifuged at 20000 rpm for 15 minutes. The pellet was resuspended (homogenised) in 10 ml Buffer 2 and re-centrifuged. This step was repeated once more. The resulting pellet was resuspended in Buffer 2, and the protein concentration was determined. The membranes were stored at minus 80° C.\nBuffer 1:20 mM Na-HEPES+10 mM EDTA, pH 7.4\nBuffer 2:20 mM Na-HEPES+0.1 mM EDTA, pH 7.4\nTest compounds, membranes, SPA-particles and [^125I]-GLP-1(7-36)NH2 were diluted in assay buffer. 50 ul (micro liter) HSA (“high albumin” experiment containing 2% HSA), or buffer (“low albumin” experiment containing 0.001% HSA) was added to Optiplate, and 25 ul of test compounds were added. 5-10 ug membrane protein/sample was added (50 ul) corresponding to 0.1-0.2 mg protein/ml (to be preferably optimised for each membrane preparation). SPA-particles (Wheatgerm agglutinin SPA beads, Perkin Elmer, # RPNQ0001) were added in an amount of 0.5 mg/well (50 ul). The incubation was started with [^125I]-GLP-1]-(7-36)NH2 (final concentration 0.06 nM corresponding to 49.880 DPM, 25 ul). The plates were sealed with PlateSealer and incubated for 120 minutes at 30° C. while shaking. The plates were centrifuged (1500 rpm, 10 min) and counted in Topcounter."}, "[3]": {"conditions": "In vitro potency (CRE luciferase) EC50 (1% HSA), 1% HSA"}, "[4]": {"conditions": "Receptor binding affinity IC50 (high HSA), 2.0% HSA (high albumin)"}},
  "data": [
    {"smiles": "CC[C@H](C)[C@H](NC(=O)[C@H](Cc1ccccc1)NC(=O)[C@H](CCC(=O)O)NC(=O)[C@H](CCCCNC(=O)[C@H](CCCCNC(=O)[C@H](CCCCNC(=O)CC[C@H](NC(=O)CCCCCCCCCCOc1ccc(C(=O)O)cc1)C(=O)O)N(C)C)N(C)C)NC(=O)[C@H](C)NC(=O)[C@H](C)NC(=O)[C@H](CCC(N)=O)NC(=O)CNC(=O)[C@H](CCC(=O)O)NC(=O)[C@H](CC(C)C)NC(=O)[C@H](Cc1ccc(O)cc1)NC(=O)[C@H](CO)NC(=O)[C@H](CO)NC(=O)[C@@H](NC(=O)[C@H](CC(=O)O)NC(=O)[C@H](CO)NC(=O)[C@@H](NC(=O)[C@H](Cc1ccccc1)NC(=O)[C@@H](NC(=O)CNC(=O)[C@H](CCC(=O)O)NC(=O)C(C)(C)NC(=O)[C@@H](N)Cc1c[nH]cn1)[C@@H](C)O)[C@@H](C)O)C(C)C)C(=O)N[C@@H](C)C(=O)N[C@@H](Cc1c[nH]c2ccccc12)C(=O)N[C@@H](CC(C)C)C(=O)N[C@H](C(=O)N[C@@H](CCCNC(=N)N)C(=O)NCC(=O)N[C@@H](CCCNC(=N)N)C(=O)N[C@@H](CCCCNC(=O)[C@H](CCCCNC(=O)[C@H](CCCCNC(=O)CC[C@H](NC(=O)CCCCCCCCCCOc1ccc(C(=O)O)cc1)C(=O)O)N(C)C)N(C)C)C(=O)O)C(C)C", "note": "[Example 37, N^ε26-[(2S)-6-[[(2S)-6-[[(4S)-4-carboxy-4-[11-(4-carboxyphenoxy)undecanoylamino]butanoyl]amino]-2-(dimethylamino)hexanoyl]amino]-2-(dimethylamino)hexanoyl], N^ε37-[(2S)-6-[[(2S)-6-[[(4S)-4-carboxy-4-[11-(4-carboxyphenoxy)undecanoylamino]butanoyl]amino]-2-(dimethylamino)hexanoyl]amino]-2-(dimethylamino)hexanoyl]-[Aib^8,Arg^34,Lys^37]-GLP-1-(7-37)-peptide]", "values": [
      {"measurement": "EC50", "setting": "human GLP-1 receptor [1]; [3]", "result": 0.093, "unit": "nM"},
      {"measurement": "IC50", "setting": "human GLP-1 receptor [2]; [4]", "result": 24, "unit": "nM"}
    ]},
    {"smiles": "CC[C@H](C)[C@H](NC(=O)[C@H](Cc1ccccc1)NC(=O)[C@H](CCC(=O)O)NC(=O)[C@H](CCCCNC(=O)[C@@H](N)CCCCNC(=O)[C@@H](N)CCCCNC(=O)CC[C@H](NC(=O)CCCCCCCCCOc1ccc(C(=O)O)cc1)C(=O)O)NC(=O)[C@H](C)NC(=O)[C@H](C)NC(=O)[C@H](CCC(N)=O)NC(=O)CNC(=O)[C@H](CCC(=O)O)NC(=O)[C@H](CC(C)C)NC(=O)[C@H](Cc1ccc(O)cc1)NC(=O)[C@H](CO)NC(=O)[C@H](CO)NC(=O)[C@@H](NC(=O)[C@H](CC(=O)O)NC(=O)[C@H](CO)NC(=O)[C@@H](NC(=O)[C@H](Cc1ccccc1)NC(=O)[C@@H](NC(=O)CNC(=O)[C@H](CCC(=O)O)NC(=O)C(C)(C)NC(=O)[C@@H](N)Cc1c[nH]cn1)[C@@H](C)O)[C@@H](C)O)C(C)C)C(=O)N[C@@H](C)C(=O)N[C@@H](Cc1c[nH]cn1)C(=O)N[C@@H](CC(C)C)C(=O)N[C@H](C(=O)N[C@@H](CCC(N)=O)C(=O)NCC(=O)N[C@@H](CCCNC(=N)N)C(=O)N[C@@H](CCCCNC(=O)[C@@H](N)CCCCNC(=O)[C@@H](N)CCCCNC(=O)CC[C@H](NC(=O)CCCCCCCCCOc1ccc(C(=O)O)cc1)C(=O)O)C(=O)O)C(C)C", "note": "[Example 32, N^ε26-[(2S)-2-amino-6-[[(2S)-2-amino-6-[[(4S)-4-carboxy-4-[10-(4-carboxyphenoxy)decanoylamino]butanoyl]amino]hexanoyl]amino]hexanoyl], N^ε37-[(2S)-2-amino-6-[[(2S)-2-amino-6-[[(4S)-4-carboxy-4-[10-(4-carboxyphenoxy)decanoylamino]butanoyl]amino]hexanoyl]amino]hexanoyl]-[Aib^8,His^31,Gln^34,Lys^37]-GLP-1-(7-37)-peptide]", "values": [
      {"measurement": "EC50", "setting": "human GLP-1 receptor [1]; In vitro potency (CRE luciferase) EC50 (0% HSA), 0% HSA", "result": 0.011, "unit": "nM"},
      {"measurement": "EC50", "setting": "human GLP-1 receptor [1]; [3]", "result": 0.162, "unit": "nM"},
      {"measurement": "EC50/pM (ratio 1% HSA/0% HSA)", "setting": "human GLP-1 receptor [1]", "result": 14},
      {"measurement": "IC50", "setting": "human GLP-1 receptor [2]; [4]", "result": 27, "unit": "nM"},
      {"measurement": "IC50", "setting": "human GLP-1 receptor [2]; Receptor binding affinity IC50 (low HSA), 0.001% HSA (low albumin)", "result": 1.57, "unit": "nM"}
    ]},
    {"smiles": "CC[C@H](C)[C@H](NC(=O)[C@H](Cc1ccccc1)NC(=O)[C@H](CCC(=O)O)NC(=O)[C@H](CCCCNC(=O)[C@@H](N)CCCCNC(=O)[C@@H](N)CCCCNC(=O)CC[C@H](NC(=O)CCCCCCCCCCCCC(=O)O)C(=O)O)NC(=O)[C@H](C)NC(=O)[C@H](C)NC(=O)[C@H](CCC(N)=O)NC(=O)CNC(=O)[C@H](CCC(=O)O)NC(=O)[C@H](CC(C)C)NC(=O)[C@H](Cc1ccc(O)cc1)NC(=O)[C@H](CO)NC(=O)[C@H](CO)NC(=O)[C@@H](NC(=O)[C@H](CC(=O)O)NC(=O)[C@H](CO)NC(=O)[C@@H](NC(=O)[C@H](Cc1ccccc1)NC(=O)[C@@H](NC(=O)CNC(=O)[C@H](CCC(=O)O)NC(=O)C(C)(C)NC(=O)[C@@H](N)Cc1c[nH]cn1)[C@@H](C)O)[C@@H](C)O)C(C)C)C(=O)N[C@@H](C)C(=O)N[C@@H](Cc1c[nH]c2ccccc12)C(=O)N[C@@H](CC(C)C)C(=O)N[C@H](C(=O)N[C@@H](Cc1c[nH]cn1)C(=O)NCC(=O)N[C@@H](CCCNC(=N)N)C(=O)N[C@@H](CCCCNC(=O)[C@@H](N)CCCCNC(=O)[C@@H](N)CCCCNC(=O)CC[C@H](NC(=O)CCCCCCCCCCCCC(=O)O)C(=O)O)C(=O)O)C(C)C", "note": "[Example 3, N^ε26-[(2S)-2-amino-6-[[(2S)-2-amino-6-[[(4S)-4-carboxy-4-(13-carboxytridecanoylamino)butanoyl]amino]hexanoyl]amino]hexanoyl], N^ε37-[(2S)-2-amino-6-[[(2S)-2-amino-6-[[(4S)-4-carboxy-4-(13-carboxytridecanoylamino)butanoyl]amino]hexanoyl]amino]hexanoyl]-[Aib^8,His^34,Lys^37]-GLP-1-(7-37)-peptide]", "values": [
      {"measurement": "EC50", "setting": "human GLP-1 receptor [1]; [3]", "result": 0.08, "unit": "nM"},
      {"measurement": "EC50/pM (ratio 1% HSA/0% HSA)", "setting": "human GLP-1 receptor [1]", "result": 10.3}
    ]}
  ]
}
